Laboratory results taken from US10934274B2, “Quinoline derivatives as TAM RTK inhibitors” (Qurient Co., Ltd., priority 2015, dated 2021).

Legend:
[1] = target: T1, TYRO3 (Homo sapiens, UniProt Q06418); assay: LanthaScreen Eu kinase binding assay, TYRO3; details: Tracer 236
T1 construct: purchased Life Technologies
T1 sequence (Q06418 41-890): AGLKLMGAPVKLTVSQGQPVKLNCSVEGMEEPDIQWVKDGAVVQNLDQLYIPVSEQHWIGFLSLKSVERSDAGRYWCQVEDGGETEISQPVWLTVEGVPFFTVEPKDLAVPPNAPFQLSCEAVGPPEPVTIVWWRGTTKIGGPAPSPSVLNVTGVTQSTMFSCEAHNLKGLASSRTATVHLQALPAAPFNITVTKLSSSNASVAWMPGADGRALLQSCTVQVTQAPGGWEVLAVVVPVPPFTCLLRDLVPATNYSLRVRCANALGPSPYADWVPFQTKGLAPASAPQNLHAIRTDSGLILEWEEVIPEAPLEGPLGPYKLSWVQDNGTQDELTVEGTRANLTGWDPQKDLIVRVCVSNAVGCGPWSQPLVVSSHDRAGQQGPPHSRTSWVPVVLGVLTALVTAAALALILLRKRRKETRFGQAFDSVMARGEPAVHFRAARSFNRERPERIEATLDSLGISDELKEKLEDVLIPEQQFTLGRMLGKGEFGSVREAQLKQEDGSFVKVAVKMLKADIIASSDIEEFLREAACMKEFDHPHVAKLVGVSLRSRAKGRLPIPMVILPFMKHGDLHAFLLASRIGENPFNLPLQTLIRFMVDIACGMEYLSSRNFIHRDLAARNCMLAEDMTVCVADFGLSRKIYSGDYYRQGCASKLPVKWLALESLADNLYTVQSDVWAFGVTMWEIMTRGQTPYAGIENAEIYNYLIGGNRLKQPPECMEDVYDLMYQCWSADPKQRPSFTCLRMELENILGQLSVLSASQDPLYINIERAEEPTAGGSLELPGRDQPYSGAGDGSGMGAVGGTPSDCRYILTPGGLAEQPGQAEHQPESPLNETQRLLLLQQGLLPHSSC
Description: (§1) LanthaScreen® Eu Kinase Binding assays were conducted at Life Technologies using the manufacturer's specifications for each kinase indicated.
(§2) Briefly, the principle behind this assay is based upon the binding and displacement of an Alexa Fluor 647-labeled tracer to the kinase of interest. Binding of the tracer to the kinase is detected using an EU-labeled anti-tag antibody. Simultaneous binding of both the tracer and antibody to the kinase gives rise to a FRET-signal. Binding of an inhibitor to the kinase competes for binding with the tracer, resulting in a loss of FRET-signal.
(§3) Binding Assay Protocol for AXL, Mer, Tyro3 and Met
(§4) A given compound was diluted in DMSO to make a stock compound solution. The stock compound solution was serially diluted over eight steps in DMSO. Each diluted compound solution in DMSO was diluted in kinase buffer. Afterwards four kinds of working solution were prepared. First, Tracer-Working solution consists of Tracer 236 and Kinase Buffer. Second, Axl, Mer, Tyro3 or Met/anti-GST-AB-Working solution contained one of the kinases Axl, Mer, Tyro3, Met or anti-GST-AB (=anti glutathione-S-transferase antibody) in Kinase Buffer. Third, anti-GST-AB-Working solution was made with anti-GST-AB and Kinase Buffer. Last, in the DMSO-Working solution DMSO was added to Kinase Buffer to a final concentration to 3%. Each of the four kinds of working solutions were separately added to the assay plate and then incubated for 1 h at room temperature. After incubation, the assay plate was measured with respect to the FRET-Signal with the EnVision (Perkin Elmer) using the program LanthaHTRF-Assay. Data evaluation was done in the Quattro Workflow software.
(§5) Table 1 summarises the results obtained for AXL, Mer and Tyro3-kinases binding assays; table 2 summarises the results obtained for the Met kinase binding assay.

[2] = target: T2, Mer (Homo sapiens, UniProt Q12866); assay: LanthaScreen Eu kinase binding assay, Mer; details: Tracer 236
T2 construct: purchased Life Technologies
T2 sequence (Q12866 21-999): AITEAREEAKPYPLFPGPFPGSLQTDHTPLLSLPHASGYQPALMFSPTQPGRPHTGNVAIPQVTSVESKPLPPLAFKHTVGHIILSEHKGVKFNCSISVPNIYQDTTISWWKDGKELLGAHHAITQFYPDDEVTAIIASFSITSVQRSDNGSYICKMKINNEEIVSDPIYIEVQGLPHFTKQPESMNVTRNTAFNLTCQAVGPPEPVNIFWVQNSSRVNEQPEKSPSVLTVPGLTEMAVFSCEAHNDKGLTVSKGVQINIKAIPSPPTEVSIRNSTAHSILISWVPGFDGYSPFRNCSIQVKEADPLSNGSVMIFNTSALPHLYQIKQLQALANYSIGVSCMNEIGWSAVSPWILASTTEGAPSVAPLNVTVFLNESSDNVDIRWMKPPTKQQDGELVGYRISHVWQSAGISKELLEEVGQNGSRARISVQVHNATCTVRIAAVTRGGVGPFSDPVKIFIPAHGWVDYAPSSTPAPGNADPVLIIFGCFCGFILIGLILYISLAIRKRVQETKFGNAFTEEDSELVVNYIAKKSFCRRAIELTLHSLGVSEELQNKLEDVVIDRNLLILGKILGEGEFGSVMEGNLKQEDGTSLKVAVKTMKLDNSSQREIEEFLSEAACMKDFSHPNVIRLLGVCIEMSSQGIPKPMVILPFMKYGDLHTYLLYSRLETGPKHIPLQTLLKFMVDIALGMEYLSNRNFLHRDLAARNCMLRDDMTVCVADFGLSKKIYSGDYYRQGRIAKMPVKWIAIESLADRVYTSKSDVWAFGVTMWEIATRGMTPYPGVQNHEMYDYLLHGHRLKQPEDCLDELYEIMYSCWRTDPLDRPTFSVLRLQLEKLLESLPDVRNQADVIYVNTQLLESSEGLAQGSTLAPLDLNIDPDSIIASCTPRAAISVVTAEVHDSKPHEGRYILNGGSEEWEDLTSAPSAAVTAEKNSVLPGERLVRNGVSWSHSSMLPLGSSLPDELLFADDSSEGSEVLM
Description: as §1, §2, §3, §4, §5

[3] = target: T3, Axl (Homo sapiens, UniProt P30530); assay: LanthaScreen Eu kinase binding assay, Axl; details: Tracer 236
T3 construct: purchased Life Technologies
T3 sequence (P30530 26-894): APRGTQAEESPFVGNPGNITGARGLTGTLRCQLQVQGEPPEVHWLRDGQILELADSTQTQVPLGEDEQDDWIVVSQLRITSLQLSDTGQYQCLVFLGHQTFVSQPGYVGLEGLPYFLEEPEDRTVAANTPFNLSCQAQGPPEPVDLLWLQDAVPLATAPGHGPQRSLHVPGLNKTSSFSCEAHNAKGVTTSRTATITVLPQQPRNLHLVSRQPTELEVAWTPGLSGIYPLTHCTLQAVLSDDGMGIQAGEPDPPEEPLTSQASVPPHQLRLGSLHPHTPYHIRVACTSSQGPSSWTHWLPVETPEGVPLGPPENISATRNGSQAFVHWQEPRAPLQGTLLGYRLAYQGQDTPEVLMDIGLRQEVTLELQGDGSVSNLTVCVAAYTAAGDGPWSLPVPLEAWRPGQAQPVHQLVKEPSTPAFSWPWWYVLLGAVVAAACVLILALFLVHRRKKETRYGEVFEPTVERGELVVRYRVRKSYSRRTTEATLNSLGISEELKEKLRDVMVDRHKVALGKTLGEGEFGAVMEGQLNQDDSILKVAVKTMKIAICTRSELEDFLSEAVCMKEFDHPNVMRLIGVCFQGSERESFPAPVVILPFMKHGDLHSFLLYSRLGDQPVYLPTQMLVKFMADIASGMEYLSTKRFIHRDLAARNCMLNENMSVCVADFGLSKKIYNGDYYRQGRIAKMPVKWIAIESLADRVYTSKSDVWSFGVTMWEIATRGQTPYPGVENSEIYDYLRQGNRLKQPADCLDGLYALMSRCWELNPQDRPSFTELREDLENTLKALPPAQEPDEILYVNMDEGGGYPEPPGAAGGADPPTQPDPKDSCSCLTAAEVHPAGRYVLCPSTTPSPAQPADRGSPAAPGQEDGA
Description: as §1, §2, §3, §4, §5

[4] = target: T4, Met (Homo sapiens, UniProt P08581); assay: LanthaScreen Eu kinase binding assay, Met; details: Tracer 236, read-out: cMet kinase binding activity (Kd)
T4 construct: purchased Life Technologies
T4 sequence (P08581 25-1390): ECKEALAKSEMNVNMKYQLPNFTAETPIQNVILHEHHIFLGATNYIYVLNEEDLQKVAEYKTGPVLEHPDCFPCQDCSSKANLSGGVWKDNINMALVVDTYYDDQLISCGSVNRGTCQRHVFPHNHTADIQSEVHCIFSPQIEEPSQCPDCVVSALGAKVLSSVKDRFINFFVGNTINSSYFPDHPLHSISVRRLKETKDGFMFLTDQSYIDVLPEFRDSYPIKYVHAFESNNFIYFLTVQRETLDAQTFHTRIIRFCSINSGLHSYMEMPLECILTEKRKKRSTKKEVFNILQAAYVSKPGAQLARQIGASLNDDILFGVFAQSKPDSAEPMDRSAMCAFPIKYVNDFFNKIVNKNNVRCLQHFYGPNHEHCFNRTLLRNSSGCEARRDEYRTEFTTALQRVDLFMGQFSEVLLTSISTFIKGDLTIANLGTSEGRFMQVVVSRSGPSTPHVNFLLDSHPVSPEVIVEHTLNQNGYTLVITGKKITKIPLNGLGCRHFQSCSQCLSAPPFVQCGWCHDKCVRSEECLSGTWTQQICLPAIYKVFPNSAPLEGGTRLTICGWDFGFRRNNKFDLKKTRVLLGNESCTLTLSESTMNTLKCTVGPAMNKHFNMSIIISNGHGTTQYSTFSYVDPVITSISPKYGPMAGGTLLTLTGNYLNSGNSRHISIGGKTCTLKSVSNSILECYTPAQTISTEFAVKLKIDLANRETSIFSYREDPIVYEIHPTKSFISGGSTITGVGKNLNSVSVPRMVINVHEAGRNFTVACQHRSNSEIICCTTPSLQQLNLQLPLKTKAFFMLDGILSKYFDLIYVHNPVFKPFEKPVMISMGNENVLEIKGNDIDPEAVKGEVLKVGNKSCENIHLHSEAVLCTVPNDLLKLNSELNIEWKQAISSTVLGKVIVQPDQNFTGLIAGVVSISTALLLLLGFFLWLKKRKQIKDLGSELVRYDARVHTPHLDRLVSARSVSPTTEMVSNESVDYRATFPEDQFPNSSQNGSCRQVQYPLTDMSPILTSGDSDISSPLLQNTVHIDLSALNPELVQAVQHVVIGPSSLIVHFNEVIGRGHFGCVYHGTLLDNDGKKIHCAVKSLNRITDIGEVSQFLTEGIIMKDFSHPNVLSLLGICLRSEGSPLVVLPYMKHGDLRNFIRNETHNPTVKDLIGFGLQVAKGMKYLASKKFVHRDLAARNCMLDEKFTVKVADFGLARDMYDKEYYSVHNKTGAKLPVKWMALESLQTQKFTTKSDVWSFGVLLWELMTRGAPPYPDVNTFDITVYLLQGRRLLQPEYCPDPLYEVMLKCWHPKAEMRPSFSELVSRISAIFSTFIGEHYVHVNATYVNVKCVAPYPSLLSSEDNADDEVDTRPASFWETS
Description: as §1, §2, §3, §4, §5

| Kd [1] | Kd [2] | Kd [3] | Kd [4] | Compound |
| --- | --- | --- | --- | --- |
| ≥ 1000 nM | 100 to 1000 nM | ≥ 1000 nM | 100 to 1000 nM | CCOc1cnn(CCO)c1C(=O)Nc1ccc(Oc2ccnc3cc(OC)c(OC)cc23)cn1 [Compound 72] |
| 100 to 1000 nM | < 100 nM | 100 to 1000 nM | 100 to 1000 nM | CCOc1cn(C2CCN(C)C2)nc1C(=O)Nc1ccc(Oc2ccnc3cc(OC)c(OC)cc23)cn1 (stereo not shown) [Compound 74] |
| ≥ 1000 nM | 100 to 1000 nM | 100 to 1000 nM | 100 to 1000 nM | CCOc1cnn(C2CCN(C)C2)c1C(=O)Nc1ccc(Oc2ccnc3cc(OC)c(OC)cc23)cn1 (stereo not shown) [Compound 75] |
| 100 to 1000 nM | < 100 nM | 100 to 1000 nM | 100 to 1000 nM | CCOc1cnn(C2CCOC2)c1C(=O)Nc1ccc(Oc2ccnc3cc(OC)c(OC)cc23)cn1 (stereo not shown) [Compound 77] |
| ≥ 1000 nM | 100 to 1000 nM | ≥ 1000 nM | 100 to 1000 nM | CCOc1cnn(CCOC(F)F)c1C(=O)Nc1ccc(Oc2ccnc3cc(OC)c(OC)cc23)cn1 [Compound 78] |
| 100 to 1000 nM | < 100 nM | < 100 nM | < 100 nM | CCOc1cn(Cc2cccnc2)nc1C(=O)Nc1ccc(Oc2ccnc3cc(OC)c(OC)cc23)cn1 [Compound 83] |
| ≥ 1000 nM | < 100 nM | 100 to 1000 nM | < 100 nM | CCOc1cnn(Cc2cccnc2)c1C(=O)Nc1ccc(Oc2ccnc3cc(OC)c(OC)cc23)cn1 [Compound 84] |
| ≥ 1000 nM | 100 to 1000 nM | ≥ 1000 nM | 100 to 1000 nM | CCOc1cn(-c2cnc(C(=O)O)nc2)nc1C(=O)Nc1ccc(Oc2ccnc3cc(OC)c(OC)cc23)cn1 [Compound 88] |
| 100 to 1000 nM | 100 to 1000 nM | 100 to 1000 nM | ≥ 1000 nM | CCOc1cn(-c2ccc(F)cc2C)nc1C(=O)Nc1ccc(Oc2ccnc3cc(OC)c(OC)cc23)c(NC(C)C)c1 [Compound 91] |
| 100 to 1000 nM | < 100 nM | 100 to 1000 nM | < 100 nM | CCOc1cnn(CCc2cccnc2)c1C(=O)Nc1ccc(Oc2ccnc3cc(OC)c(OC)cc23)cn1 [Compound 95] |
| ≥ 1000 nM | ≥ 1000 nM | ≥ 1000 nM | ≥ 1000 nM | CCOc1cn(-c2ccc(F)cc2C)nc1C(=O)Nc1cnc(Oc2ccnc3cc(OC)c(OC)cc23)cn1 [Compound 98] |
| 100 to 1000 nM | 100 to 1000 nM | 100 to 1000 nM | 100 to 1000 nM | CCOc1cnn(-c2ccc(Cl)cc2C(F)(F)F)c1C(=O)Nc1ccc(Oc2ccnc3cc(OC)c(OC)cc23)cn1 [Compound 103] |
| ≥ 1000 nM | ≥ 1000 nM | 100 to 1000 nM | 100 to 1000 nM | CCOc1cn(-c2ccc(F)cc2C)nc1C(=O)Nc1ccc(Oc2ccnc3cc(OC)c(OC)cc23)cc1C(F)(F)F [Compound 109] |
| 100 to 1000 nM | < 100 nM | 100 to 1000 nM | 100 to 1000 nM | CCOc1cnn(-c2ccc(C(C)C)cc2)c1C(=O)Nc1ccc(Oc2ccnc3cc(OC)c(OC)cc23)cn1 [Compound 118] |
| 100 to 1000 nM | 100 to 1000 nM | 100 to 1000 nM | 100 to 1000 nM | CCOc1cn(-c2ccc(F)cc2C)nc1C(=O)Nc1ccc(Oc2ccnc3cc(OC)c(OC)cc23)cc1CO [Compound 119] |
| ≥ 1000 nM | < 100 nM | 100 to 1000 nM | 100 to 1000 nM | CCOc1cn(-c2ccc(C(C)(C)C)cc2)nc1C(=O)Nc1ccc(Oc2ccnc3cc(OC)c(OC)cc23)cn1 [Compound 121] |
| ≥ 1000 nM | ≥ 1000 nM | ≥ 1000 nM | ≥ 1000 nM | CCOc1cn(-c2ccc(F)cc2C)nc1C(=O)Nc1csc(Oc2ccnc3cc(OC)c(OC)cc23)n1 [Compound 122] |
| ≥ 1000 nM | 100 to 1000 nM | 100 to 1000 nM | 100 to 1000 nM | CCOc1cnn(-c2ccc(C(C)(C)C)cc2)c1C(=O)Nc1ccc(Oc2ccnc3cc(OC)c(OC)cc23)cn1 [Compound 123] |
| ≥ 1000 nM | 100 to 1000 nM | 100 to 1000 nM | 100 to 1000 nM | CCOc1cn(-c2c(CN(C)C)ccnc2C)nc1C(=O)Nc1ccc(Oc2ccnc3cc(OC)c(OC)cc23)cn1 [Compound 131] |
| ≥ 1000 nM | < 100 nM | 100 to 1000 nM | < 100 nM | CCOc1cn(-c2ncc(Cl)cc2CN)nc1C(=O)Nc1ccc(Oc2ccnc3cc(OC)c(OC)cc23)cn1 [Compound 134] |
| < 100 nM | < 100 nM | < 100 nM | < 100 nM | CCOc1cn(-c2cnc(N)cn2)nc1C(=O)Nc1ccc(Oc2ccnc3cc(OC)c(OC)cc23)cn1 [Compound 136] |
| 100 to 1000 nM | < 100 nM | < 100 nM | < 100 nM | CCOc1cn(-c2cnc(N)cc2C)nc1C(=O)Nc1ccc(Oc2ccnc3cc(OC)c(OC)cc23)cn1 [Compound 137] |
